In patent US20240158412A1 (Faxian Therapeutics, LLC, priority 2021, published 2024):

These compounds were tested against USP7 (Homo sapiens, UniProt Q93009) (assay: biochemical).
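Note: fluorescence intensity readout of USP7 enzymatic activity, reaction incubated 90 min at room temperature.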
Procedure: Example A. Biochemical Assay of USP7 Inhibitor Potency (IC50)
Fluorescence intensity assay of USP7 activity in the presence USP7 inhibitors. Recombinant USP7 protein (catalogue number E-519) and the fluorescence substrate ubiquitin-rhodamine 110 (Rh110) (catalogue number U-555) were purchased from Boston Biochem (840 Memorial Drive, Cambridge, MA 02139). The reaction was carried out in buffer 20 mM HEPES, pH 7.3, 150 mM NaCl, 1 mM TCEP, 125 μg/mL BSA at room temperature in a black 384-well Microplate (Greiner, catalog number 781076).
Test compounds were dissolved in DMSO to make 50 mM stock solution. […] In wells of a black 384-well Microplate, 15 μl of 100 pM of USP7 enzyme was added to each well with pre-diluted compounds and incubated at room temperature for 30 minutes, followed by addition of 10 μl of ubiquitin-rhodamine 110 (Rh110) substrate to reach 160 nM final concentration. The reaction mixtures were incubated for additional 90 minutes at room temperature. The fluorescence signal of the digested substrate was measured on an EnVision microplate reader (PerkinElmer,), using excitation at 485 nm and emission at 535 nm. The IC50 values were calculated using XLfit software.

Sequence of USP7 (Q93009 whole entry): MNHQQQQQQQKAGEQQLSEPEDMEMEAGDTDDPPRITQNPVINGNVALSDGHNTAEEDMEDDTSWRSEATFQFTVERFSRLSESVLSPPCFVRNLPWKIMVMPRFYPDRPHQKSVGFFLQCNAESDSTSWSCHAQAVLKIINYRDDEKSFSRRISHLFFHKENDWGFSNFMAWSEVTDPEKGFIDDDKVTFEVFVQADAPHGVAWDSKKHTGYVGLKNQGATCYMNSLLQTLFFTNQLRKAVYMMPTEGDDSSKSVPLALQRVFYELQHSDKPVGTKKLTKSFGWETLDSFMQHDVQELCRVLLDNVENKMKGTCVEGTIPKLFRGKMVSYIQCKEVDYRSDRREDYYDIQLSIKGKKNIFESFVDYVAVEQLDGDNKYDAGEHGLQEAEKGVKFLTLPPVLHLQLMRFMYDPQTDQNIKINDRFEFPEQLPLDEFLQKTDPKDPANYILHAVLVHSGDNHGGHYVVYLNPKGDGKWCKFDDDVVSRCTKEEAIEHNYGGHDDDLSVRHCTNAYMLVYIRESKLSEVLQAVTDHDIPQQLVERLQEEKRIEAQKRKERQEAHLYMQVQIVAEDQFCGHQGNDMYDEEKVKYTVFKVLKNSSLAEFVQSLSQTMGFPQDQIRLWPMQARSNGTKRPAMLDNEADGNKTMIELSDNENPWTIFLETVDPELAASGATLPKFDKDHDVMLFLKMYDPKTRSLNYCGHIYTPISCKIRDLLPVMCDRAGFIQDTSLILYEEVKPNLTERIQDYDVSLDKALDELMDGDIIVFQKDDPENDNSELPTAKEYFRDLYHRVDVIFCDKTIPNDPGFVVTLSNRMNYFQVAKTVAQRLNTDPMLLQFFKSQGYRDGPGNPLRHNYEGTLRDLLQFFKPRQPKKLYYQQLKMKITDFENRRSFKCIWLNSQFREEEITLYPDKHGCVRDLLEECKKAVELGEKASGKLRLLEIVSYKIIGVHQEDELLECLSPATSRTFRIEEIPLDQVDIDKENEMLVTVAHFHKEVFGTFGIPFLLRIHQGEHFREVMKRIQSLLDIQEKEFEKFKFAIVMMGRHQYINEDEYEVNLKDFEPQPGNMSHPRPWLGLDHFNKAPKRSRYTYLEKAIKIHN

`O=c1ccn(C2CC2)c(=O)n1Cc1cc2nccc(-c3cc(Cl)cc4c3N([C@@H]3CNC5(CCC5)C3)CCC4)c2s1` [Example 148, (S)-3-((7-(6-chloro-1-(5-azaspiro[3.4]octan-7-yl)-1,2,3,4-tetrahydroquinolin-8-yl)thieno[3,2-b]pyridin-2-yl)methyl)-1-cyclopropylpyrimidine-2,4(1H,3H)-dione] and `O=c1ccn(C(F)F)c(=O)n1Cc1cc2nccc(-c3cc(Cl)cc4c3N([C@@H]3CNC5(CCC5)C3)CCC4)c2s1` [Example 149, (S)-3-((7-(6-chloro-1-(5-azaspiro[3.4]octan-7-yl)-1,2,3,4-tetrahydroquinolin-8-yl)thieno[3,2-b]pyridin-2-yl)methyl)-1-(difluoromethyl)pyrimidine-2,4(1H,3H)-dione] cannot be ordered by IC50: < 0.01 µM for the first, < 0.01 µM for the second.

`CN1CC(=O)N(Cc2cc3nccc(-c4cc(Cl)cc5c4N([C@@H]4CNC6(CCC6)C4)CCC5)c3s2)C1=O` [Example 150, (S)-3-((7-(6-chloro-1-(5-azaspiro[3.4]octan-7-yl)-1,2,3,4-tetrahydroquinolin-8-yl)thieno[3,2-b]pyridin-2-yl)methyl)-1-methylimidazolidine-2,4-dione] and `O=C1COC(=O)N1Cc1cc2nccc(-c3cc(Cl)cc4c3N([C@@H]3CNC5(CCC5)C3)CCC4)c2s1` [Example 151, (S)-3-((7-(6-chloro-1-(5-azaspiro[3.4]octan-7-yl)-1,2,3,4-tetrahydroquinolin-8-yl)thieno[3,2-b]pyridin-2-yl)methyl)oxazolidine-2,4-dione] cannot be ordered by IC50: < 0.01 µM for the first, < 0.01 µM for the second.

First: CC1(C)OC(=O)N(Cc2cc3nccc(-c4cc(Cl)cc5c4N([C@@H]4CNC6(CCC6)C4)CCC5)c3s2)C1=O [Example 152, (S)-3-((7-(6-chloro-1-(5-azaspiro[3.4]octan-7-yl)-1,2,3,4-tetrahydroquinolin-8-yl)thieno[3,2-b]pyridin-2-yl)methyl)-5,5-dimethyloxazolidine-2,4-dione]
Second: CC1(C)OC(=O)C(Cc2cc3nccc(-c4cc(Cl)cc5c4N([C@@H]4CNC6(CCC6)C4)CCC5)c3s2)C(=O)O1 [Example 156, (S)-5-((7-(6-chloro-1-(5-azaspiro[3.4]octan-7-yl)-1,2,3,4-tetrahydroquinolin-8-yl)thieno[3,2-b]pyridin-2-yl)methyl)-2,2-dimethyl-1,3-dioxane-4,6-dione]
The IC50 of the first is lower: 0.01 to 0.1 µM for the first, 0.101 to 1 µM for the second. The first is the more potent here.

`Cc1cnn(Cc2cc3nccc(-c4cc(Cl)cc5c4N([C@@H]4CNC6(CCC6)C4)CCC5)c3s2)c(=O)c1` [Example 153, (S)-2-((7-(6-chloro-1-(5-azaspiro[3.4]octan-7-yl)-1,2,3,4-tetrahydroquinolin-8-yl)thieno[3,2-b]pyridin-2-yl)methyl)-5-methylpyridazin-3(2H)-one] and `O=c1cc(CC(F)(F)F)cnn1Cc1cc2nccc(-c3cc(Cl)cc4c3N([C@@H]3CNC5(CCC5)C3)CCC4)c2s1` [Example 154, (S)-2-((7-(6-chloro-1-(5-azaspiro[3.4]octan-7-yl)-1,2,3,4-tetrahydroquinolin-8-yl)thieno[3,2-b]pyridin-2-yl)methyl)-5-(2,2,2-trifluoroethyl)pyridazin-3(2H)-one] cannot be ordered by IC50: < 0.01 µM for the first, < 0.01 µM for the second.

First: O=C1[C@@H]2[C@H]3CC[C@H](C3)[C@@H]2C(=O)N1Cc1cc2nccc(-c3cc(Cl)cc4c3N([C@@H]3CNC5(CCC5)C3)CCC4)c2s1 [Example 155, (3aR,4S,7R,7aS)-2-((7-(6-chloro-1-((S)-5-azaspiro[3.4]octan-7-yl)-1,2,3,4-tetrahydroquinolin-8-yl)thieno[3,2-b]pyridin-2-yl)methyl)hexahydro-1H-4,7-methanoisoindole-1,3(2H)-dione]
Second: O=C1CN(C2CC(F)(F)C2)C(=O)N1Cc1cc2nccc(-c3cc(Cl)cc4c3N([C@@H]3CNC5(CCC5)C3)CCC4)c2s1 [Example 159, (S)-3-((7-(6-chloro-1-(5-azaspiro[3.4]octan-7-yl)-1,2,3,4-tetrahydroquinolin-8-yl)thieno[3,2-b]pyridin-2-yl)methyl)-1-(3,3-difluorocyclobutyl)imidazolidine-2,4-dione]
The IC50 of the first is higher: 0.01 to 0.1 µM for the first, < 0.01 µM for the second.

Compared with `O=C1OC[C@@H](C(F)(F)F)N1Cc1cc2nccc(-c3cc(Cl)cc4c3N([C@@H]3CNC5(CCC5)C3)CCC4)c2s1` [Example 157, (S)-3-((7-(6-chloro-1-((S)-5-azaspiro[3.4]octan-7-yl)-1,2,3,4-tetrahydroquinolin-8-yl)thieno[3,2-b]pyridin-2-yl)methyl)-4-(trifluoromethyl)oxazolidin-2-one], `O=C1OC[C@H](C(F)(F)F)N1Cc1cc2nccc(-c3cc(Cl)cc4c3N([C@@H]3CNC5(CCC5)C3)CCC4)c2s1` [Example 158, (R)-3-((7-(6-chloro-1-((S)-5-azaspiro[3.4]octan-7-yl)-1,2,3,4-tetrahydroquinolin-8-yl)thieno[3,2-b]pyridin-2-yl)methyl)-4-(trifluoromethyl)oxazolidin-2-one] is lower in IC50: 0.01 to 0.1 µM for the first, < 0.01 µM for the second. The second is the more potent here.

Compared with `O=C1CCC(=O)N1Cc1cc2nccc(-c3cc(C(F)(F)F)cc4c3N([C@@H]3CNC5(CCC5)C3)CCC4)c2s1` [Example 163, (S)-1-((7-(1-(5-azaspiro[3.4]octan-7-yl)-6-(trifluoromethyl)-1,2,3,4-tetrahydroquinolin-8-yl)thieno[3,2-b]pyridin-2-yl)methyl)pyrrolidine-2,5-dione], `O=C1CCC(=O)N1Cc1cc2nccc(-c3cc(Cl)cc4c3N([C@@H]3CNC5(CCC5)C3)C[C@@H]3C[C@H]43)c2s1` [Example 165a, 1-((7-((1aR,7bS)-6-chloro-3-((S)-5-azaspiro[3.4]octan-7-yl)-1a,2,3,7b-tetrahydro-1H-cyclopropa[c]quinolin-4-yl)thieno[3,2-b]pyridin-2-yl)methyl)pyrrolidine-2,5-dione] is higher in IC50: < 0.01 µM for the first, 0.01 to 0.1 µM for the second. The first is the more potent here.

First: O=C1CCC(=O)N1Cc1cc2nccc(-c3cc(Cl)cc4c3N([C@H]3CNC5(CCC5)C3)C[C@@H]3C[C@H]43)c2s1 [Example 165b, 1-((7-((1aR,7bS)-6-chloro-3-((R)-5-azaspiro[3.4]octan-7-yl)-1a,2,3,7b-tetrahydro-1H-cyclopropa[c]quinolin-4-yl)thieno[3,2-b]pyridin-2-yl)methyl)pyrrolidine-2,5-dione]
Second: O=C1CCC(=O)N1Cc1cc2nccc(-c3cc(Cl)cc4c3N([C@@H]3CNC5(CCC5)C3)C[C@H]3C[C@@H]43)c2s1 [Example 165c, 1-((7-((1aS,7bR)-6-chloro-3-((S)-5-azaspiro[3.4]octan-7-yl)-1a,2,3,7b-tetrahydro-1H-cyclopropa[c]quinolin-4-yl)thieno[3,2-b]pyridin-2-yl)methyl)pyrrolidine-2,5-dione]
The IC50 of the first is higher: 0.101 to 1 µM for the first, < 0.01 µM for the second.

`Cc1cnn(Cc2cc3nccc(-c4cc(Cl)cc5c4N([C@@H]4CNC6(CCC6)C4)C[C@H]4C[C@@H]54)c3s2)c(=O)c1` [Example 166, 2-((7-((1aS,7bR)-6-chloro-3-((S)-5-azaspiro[3.4]octan-7-yl)-1a,2,3,7b-tetrahydro-1H-cyclopropa[c]quinolin-4-yl)thieno[3,2-b]pyridin-2-yl)methyl)-5-methylpyridazin-3(2H)-one] and `O=C1CCC(=O)N1Cc1cc2ncnc(-c3cc(Cl)cc4c3N([C@@H]3CNC5(CCC5)C3)C[C@H]3C[C@@H]43)c2s1` [Example 167a, 1-((4-((1aS,7bR)-6-chloro-3-((S)-5-azaspiro[3.4]octan-7-yl)-1a,2,3,7b-tetrahydro-1H-cyclopropa[c]quinolin-4-yl)thieno[3,2-d]pyrimidin-6-yl)methyl)pyrrolidine-2,5-dione] cannot be ordered by IC50: < 0.01 µM for the first, < 0.01 µM for the second.
